{"source": "paper PMC9135731", "about": "(Communications Biology, 2022)", "molecules": {"B1": {"name": "AviM PT domain (product template domain of the orsellinic acid synthase AviM) (domain or fragment, Streptomyces viridochromogenes Tü57)", "chain": "DSHTLLGTPGGVAGSDLRLWHSTLDDDSRPYPGSHALNGVEIVPAAVLAVTFLAAGAEGEERRALQDMTMTHPVLTAGQRQIQVVREGEVVRLASRTVADAADPNPAWLVHAEARTAAPDLAGLAARSLLDPGEHRLEPADPGLVSRRLAEVGVPSTGFDWSVERLSAGLGVLHAQVLSPDASSWAPLLDAVMSIAPAAFVGLPQLRMVVHVDEITVDGTPPEAATVEVALDPRVADTVHALVTDGEGRPVASLRGLRYP", "notes": "AviM, orsellinic acid synthase (iterative type I PKS, KS-AT-PT-ACP) of Streptomyces viridochromogenes Tü57; excised PT domain cloned as an 816 bp NdeI/EcoRI fragment in pET28a; An 816 bp fragment codes for about 272 residues, more than the 260 of residues 915-1174; also called bacterial PT domain; source: E. coli BL21(DE3), purified (Nickel-NTA, gel filtration); not shown: His6, N-terminal, kept"}}, "key": {"AviM": {"target": "T1, AviM (Streptomyces viridochromogenes, UniProt O05170)", "T1 construct": "expressed in E. coli BAP1 (sfp), phosphopantetheinylated with CoA and Sfp before assay", "T1 sequence (O05170 entry or part of it)": "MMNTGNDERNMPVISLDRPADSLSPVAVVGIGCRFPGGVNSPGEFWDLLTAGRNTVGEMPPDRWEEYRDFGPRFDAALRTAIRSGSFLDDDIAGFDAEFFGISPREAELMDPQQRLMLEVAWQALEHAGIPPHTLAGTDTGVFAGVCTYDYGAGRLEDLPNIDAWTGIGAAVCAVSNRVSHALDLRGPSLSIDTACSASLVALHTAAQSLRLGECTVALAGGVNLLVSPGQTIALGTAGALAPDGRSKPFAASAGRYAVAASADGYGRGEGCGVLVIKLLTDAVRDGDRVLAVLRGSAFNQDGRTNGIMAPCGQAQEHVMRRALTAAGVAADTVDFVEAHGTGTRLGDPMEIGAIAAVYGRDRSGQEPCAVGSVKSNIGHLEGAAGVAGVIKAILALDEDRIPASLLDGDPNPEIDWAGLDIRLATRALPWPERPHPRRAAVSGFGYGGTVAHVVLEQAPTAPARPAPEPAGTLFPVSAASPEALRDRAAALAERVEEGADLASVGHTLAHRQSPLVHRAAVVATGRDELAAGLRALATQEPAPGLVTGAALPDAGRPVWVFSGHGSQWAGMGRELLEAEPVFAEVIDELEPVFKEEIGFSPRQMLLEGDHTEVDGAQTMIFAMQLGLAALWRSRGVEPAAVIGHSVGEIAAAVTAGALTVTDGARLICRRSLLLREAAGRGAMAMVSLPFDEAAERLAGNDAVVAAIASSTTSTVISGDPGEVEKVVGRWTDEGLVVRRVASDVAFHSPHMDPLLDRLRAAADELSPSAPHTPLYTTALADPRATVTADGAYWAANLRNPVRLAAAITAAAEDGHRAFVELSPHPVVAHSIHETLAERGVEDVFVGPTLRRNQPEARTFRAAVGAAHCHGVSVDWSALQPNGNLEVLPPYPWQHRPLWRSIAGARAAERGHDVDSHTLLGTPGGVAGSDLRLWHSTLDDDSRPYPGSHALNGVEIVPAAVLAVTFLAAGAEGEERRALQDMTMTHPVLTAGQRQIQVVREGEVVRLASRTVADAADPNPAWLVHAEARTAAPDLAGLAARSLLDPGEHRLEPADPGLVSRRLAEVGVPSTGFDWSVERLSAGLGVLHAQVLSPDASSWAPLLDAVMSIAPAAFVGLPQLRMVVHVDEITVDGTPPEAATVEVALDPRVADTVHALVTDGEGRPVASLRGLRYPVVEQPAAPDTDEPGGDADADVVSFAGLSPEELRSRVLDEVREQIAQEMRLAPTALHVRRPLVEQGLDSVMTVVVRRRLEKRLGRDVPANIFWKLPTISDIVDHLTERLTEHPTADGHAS", "assay": "LC-MS detection of orsellinic acid product", "assay_type": "biochemical", "conditions": "50 uM enzyme, 10 mM MgCl2, pH 7.4, 25 °C, with CoA and Sfp"}, "[1]": {"target": "the molecule itself", "assay": "SEC; Superdex 200/Superose 6 gel filtration column, 150 mM NaCl, 10 mM Tris pH 7.5, 4 °C"}}, "data": [{"molecule": "CC(=O)SCCNC(=O)CCNC(=O)[C@H](O)C(C)(C)COP(=O)(O)OP(=O)(O)OC[C@H]1O[C@@H](n2cnc3c(N)ncnc32)[C@H](O)[C@@H]1OP(=O)(O)O", "note": "[acetyl-CoA]", "values": [{"measurement": "LC-MS detection of orsellinic acid product", "setting": "AviM; starter unit, malonyl-CoA co-substrate", "result": "Trace amount of OSA was indeed produced when AviM was incubated with acetyl-CoA and malonyl-CoA"}]}, {"molecule": "CC(C)(COP(=O)(O)OP(=O)(O)OC[C@H]1O[C@@H](n2cnc3c(N)ncnc32)[C@H](O)[C@@H]1OP(=O)(O)O)[C@@H](O)C(=O)NCCC(=O)NCCSC(=O)CC(=O)O", "note": "[malonyl-CoA]", "values": [{"measurement": "LC-MS detection of orsellinic acid product", "setting": "AviM; extender unit, acetyl-CoA co-substrate", "result": "Trace amount of OSA was indeed produced when AviM was incubated with acetyl-CoA and malonyl-CoA"}]}, {"molecule": "B1", "values": [{"measurement": "stoichiometry N", "setting": "[1]", "result": 2}]}]}
